Experimental findings from ChEMBL document CHEMBL5465560, “Selectivity Literature for EUbOPEN Chemogenomic Library” (2024) are described below.

The target of assay [1] is T1, Tyrosine-protein kinase ITK/TSK (Homo sapiens) (UniProt Q08881).
T1 sequence (whole entry): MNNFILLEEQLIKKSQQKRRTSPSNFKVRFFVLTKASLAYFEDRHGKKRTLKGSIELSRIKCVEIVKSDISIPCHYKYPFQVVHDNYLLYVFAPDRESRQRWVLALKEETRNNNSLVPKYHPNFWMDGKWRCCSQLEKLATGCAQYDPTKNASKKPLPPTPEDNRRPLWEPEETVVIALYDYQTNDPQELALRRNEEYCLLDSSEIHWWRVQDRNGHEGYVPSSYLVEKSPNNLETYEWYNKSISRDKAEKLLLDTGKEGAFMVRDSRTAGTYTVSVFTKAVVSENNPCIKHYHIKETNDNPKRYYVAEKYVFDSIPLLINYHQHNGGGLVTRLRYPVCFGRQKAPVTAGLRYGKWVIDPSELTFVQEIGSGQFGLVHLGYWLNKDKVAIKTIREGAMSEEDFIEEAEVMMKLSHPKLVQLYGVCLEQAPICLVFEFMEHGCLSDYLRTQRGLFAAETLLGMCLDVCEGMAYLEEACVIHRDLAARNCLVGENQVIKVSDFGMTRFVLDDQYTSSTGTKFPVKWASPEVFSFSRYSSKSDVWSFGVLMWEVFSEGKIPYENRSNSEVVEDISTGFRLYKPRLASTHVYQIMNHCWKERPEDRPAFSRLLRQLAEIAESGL
In words: Selectivity interaction (KinomeScan (DiscoverX)) EUB0001619a ITK. Particulars: at 1 µM.

The target of assay [2] is Serine/threonine-protein kinase WNK3 (Homo sapiens) (UniProt Q9BYP7). In words: Selectivity interaction (KinomeScan (DiscoverX)) EUB0000666a WNK3. Conditions: at 10 µM.
The target in assay [3] is T2, Interleukin-1 receptor-associated kinase 4 (Homo sapiens, UniProt Q9NWZ3).
T2 sequence (Q9NWZ3 whole entry): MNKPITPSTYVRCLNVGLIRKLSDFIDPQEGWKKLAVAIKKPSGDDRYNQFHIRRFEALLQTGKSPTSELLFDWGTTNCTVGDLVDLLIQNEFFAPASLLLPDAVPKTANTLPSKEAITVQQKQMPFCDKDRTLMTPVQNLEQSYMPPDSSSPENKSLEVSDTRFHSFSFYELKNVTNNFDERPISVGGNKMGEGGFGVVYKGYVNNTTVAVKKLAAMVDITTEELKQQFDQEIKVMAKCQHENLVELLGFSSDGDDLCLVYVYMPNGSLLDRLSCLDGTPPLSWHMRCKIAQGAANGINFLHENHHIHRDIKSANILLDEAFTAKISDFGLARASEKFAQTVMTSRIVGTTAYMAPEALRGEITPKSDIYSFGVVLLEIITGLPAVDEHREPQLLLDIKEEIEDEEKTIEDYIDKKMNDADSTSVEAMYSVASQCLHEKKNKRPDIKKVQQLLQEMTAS
In words: Selectivity interaction (Kinase counterscreening (biochemical assay)) EUB0000604a IRAK4.

Assay [4] deals with Ribosomal protein S6 kinase alpha-3 (Homo sapiens, UniProt P51812). In words: Selectivity interaction (ActivX KiNativ screen (kinase selectivity in THP-1 cell lysates)) EUB0000639a RPS6KA3. The format is subcellular. Particulars: lysate, at 0.04 µM.
Assay [5] addresses T3, Dual specificity protein kinase TTK (Homo sapiens) (UniProt P33981).
T3 sequence (whole entry): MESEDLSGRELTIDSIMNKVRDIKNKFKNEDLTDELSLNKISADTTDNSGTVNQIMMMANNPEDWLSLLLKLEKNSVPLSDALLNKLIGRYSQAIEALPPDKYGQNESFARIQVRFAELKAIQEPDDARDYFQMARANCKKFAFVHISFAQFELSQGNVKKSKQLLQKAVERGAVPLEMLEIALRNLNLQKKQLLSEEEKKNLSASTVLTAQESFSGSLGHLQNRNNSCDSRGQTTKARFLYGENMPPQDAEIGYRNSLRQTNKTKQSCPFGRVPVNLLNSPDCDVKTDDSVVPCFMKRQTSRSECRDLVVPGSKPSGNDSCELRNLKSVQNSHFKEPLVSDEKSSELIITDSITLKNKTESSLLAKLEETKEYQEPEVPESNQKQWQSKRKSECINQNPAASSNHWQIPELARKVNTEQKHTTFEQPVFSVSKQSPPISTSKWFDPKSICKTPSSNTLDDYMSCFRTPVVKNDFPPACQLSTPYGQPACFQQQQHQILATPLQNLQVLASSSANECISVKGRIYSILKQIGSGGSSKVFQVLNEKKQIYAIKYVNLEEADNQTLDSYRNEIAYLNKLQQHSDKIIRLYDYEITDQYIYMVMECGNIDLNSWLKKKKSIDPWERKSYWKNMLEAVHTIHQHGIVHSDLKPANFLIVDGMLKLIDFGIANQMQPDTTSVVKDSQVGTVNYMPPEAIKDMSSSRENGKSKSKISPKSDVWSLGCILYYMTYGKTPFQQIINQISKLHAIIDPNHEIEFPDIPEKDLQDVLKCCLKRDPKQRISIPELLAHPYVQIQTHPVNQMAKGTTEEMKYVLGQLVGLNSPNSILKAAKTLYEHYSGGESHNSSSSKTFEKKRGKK
In words: Selectivity interaction (Ambit KINOMEscan and KiNATiv profiling in Jurkat cells) EUB0000090b TTK. The assay is classed as cell-based. Conditions: at 1 µM.

Assay [6] deals with T4, Serine/threonine-protein kinase tousled-like 1 (Homo sapiens) (UniProt Q9UKI8).
T4 sequence (whole entry): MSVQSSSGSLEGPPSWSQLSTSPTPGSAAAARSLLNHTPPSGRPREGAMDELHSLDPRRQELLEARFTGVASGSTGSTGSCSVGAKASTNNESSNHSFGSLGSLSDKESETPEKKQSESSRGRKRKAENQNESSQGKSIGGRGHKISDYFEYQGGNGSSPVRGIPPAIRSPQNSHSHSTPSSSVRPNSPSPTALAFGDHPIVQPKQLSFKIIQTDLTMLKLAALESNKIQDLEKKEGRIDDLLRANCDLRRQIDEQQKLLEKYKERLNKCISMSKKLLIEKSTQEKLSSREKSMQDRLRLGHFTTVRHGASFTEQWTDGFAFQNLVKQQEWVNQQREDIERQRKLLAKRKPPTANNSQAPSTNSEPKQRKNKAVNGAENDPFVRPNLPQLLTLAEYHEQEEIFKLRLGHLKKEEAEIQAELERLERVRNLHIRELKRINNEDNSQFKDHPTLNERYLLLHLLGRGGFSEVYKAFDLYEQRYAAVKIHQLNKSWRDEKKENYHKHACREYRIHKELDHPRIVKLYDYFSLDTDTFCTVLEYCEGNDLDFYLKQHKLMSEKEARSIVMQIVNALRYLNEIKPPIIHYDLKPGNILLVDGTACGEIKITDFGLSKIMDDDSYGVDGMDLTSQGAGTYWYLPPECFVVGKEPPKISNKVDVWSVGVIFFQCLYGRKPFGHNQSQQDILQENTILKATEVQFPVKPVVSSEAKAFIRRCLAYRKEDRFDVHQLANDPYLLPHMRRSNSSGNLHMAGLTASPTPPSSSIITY
In words: Selectivity interaction (Ambit KINOMEscan and KiNATiv profiling in Jurkat cells) EUB0000090b TLK1. The format is cell-based. Conditions: at 1 µM.

Each structure is given as a SMILES string. pKi: −log10 of the molar value.

Ribosomal protein S6 kinase alpha-3, sequence (P51812 whole entry): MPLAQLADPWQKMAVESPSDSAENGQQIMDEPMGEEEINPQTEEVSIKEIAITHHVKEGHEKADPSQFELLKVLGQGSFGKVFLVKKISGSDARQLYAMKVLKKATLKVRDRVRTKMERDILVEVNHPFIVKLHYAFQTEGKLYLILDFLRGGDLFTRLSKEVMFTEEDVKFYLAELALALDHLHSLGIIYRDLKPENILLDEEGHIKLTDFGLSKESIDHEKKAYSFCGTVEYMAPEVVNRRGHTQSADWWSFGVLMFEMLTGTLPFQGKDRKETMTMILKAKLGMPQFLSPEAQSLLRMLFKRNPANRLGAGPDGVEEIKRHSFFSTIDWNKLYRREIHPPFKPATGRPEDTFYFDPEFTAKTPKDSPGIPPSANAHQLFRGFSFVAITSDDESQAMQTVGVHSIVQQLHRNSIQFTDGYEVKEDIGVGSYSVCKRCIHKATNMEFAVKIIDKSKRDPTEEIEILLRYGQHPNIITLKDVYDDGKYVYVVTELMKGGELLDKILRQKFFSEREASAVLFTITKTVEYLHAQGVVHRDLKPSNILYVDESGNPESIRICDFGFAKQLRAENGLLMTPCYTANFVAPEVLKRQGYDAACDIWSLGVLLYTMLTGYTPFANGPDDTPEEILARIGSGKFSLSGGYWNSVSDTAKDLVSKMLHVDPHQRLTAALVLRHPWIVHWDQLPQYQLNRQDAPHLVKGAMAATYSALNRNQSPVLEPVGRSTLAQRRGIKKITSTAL
Serine/threonine-protein kinase WNK3 (Homo sapiens), sequence (Q9BYP7 whole entry): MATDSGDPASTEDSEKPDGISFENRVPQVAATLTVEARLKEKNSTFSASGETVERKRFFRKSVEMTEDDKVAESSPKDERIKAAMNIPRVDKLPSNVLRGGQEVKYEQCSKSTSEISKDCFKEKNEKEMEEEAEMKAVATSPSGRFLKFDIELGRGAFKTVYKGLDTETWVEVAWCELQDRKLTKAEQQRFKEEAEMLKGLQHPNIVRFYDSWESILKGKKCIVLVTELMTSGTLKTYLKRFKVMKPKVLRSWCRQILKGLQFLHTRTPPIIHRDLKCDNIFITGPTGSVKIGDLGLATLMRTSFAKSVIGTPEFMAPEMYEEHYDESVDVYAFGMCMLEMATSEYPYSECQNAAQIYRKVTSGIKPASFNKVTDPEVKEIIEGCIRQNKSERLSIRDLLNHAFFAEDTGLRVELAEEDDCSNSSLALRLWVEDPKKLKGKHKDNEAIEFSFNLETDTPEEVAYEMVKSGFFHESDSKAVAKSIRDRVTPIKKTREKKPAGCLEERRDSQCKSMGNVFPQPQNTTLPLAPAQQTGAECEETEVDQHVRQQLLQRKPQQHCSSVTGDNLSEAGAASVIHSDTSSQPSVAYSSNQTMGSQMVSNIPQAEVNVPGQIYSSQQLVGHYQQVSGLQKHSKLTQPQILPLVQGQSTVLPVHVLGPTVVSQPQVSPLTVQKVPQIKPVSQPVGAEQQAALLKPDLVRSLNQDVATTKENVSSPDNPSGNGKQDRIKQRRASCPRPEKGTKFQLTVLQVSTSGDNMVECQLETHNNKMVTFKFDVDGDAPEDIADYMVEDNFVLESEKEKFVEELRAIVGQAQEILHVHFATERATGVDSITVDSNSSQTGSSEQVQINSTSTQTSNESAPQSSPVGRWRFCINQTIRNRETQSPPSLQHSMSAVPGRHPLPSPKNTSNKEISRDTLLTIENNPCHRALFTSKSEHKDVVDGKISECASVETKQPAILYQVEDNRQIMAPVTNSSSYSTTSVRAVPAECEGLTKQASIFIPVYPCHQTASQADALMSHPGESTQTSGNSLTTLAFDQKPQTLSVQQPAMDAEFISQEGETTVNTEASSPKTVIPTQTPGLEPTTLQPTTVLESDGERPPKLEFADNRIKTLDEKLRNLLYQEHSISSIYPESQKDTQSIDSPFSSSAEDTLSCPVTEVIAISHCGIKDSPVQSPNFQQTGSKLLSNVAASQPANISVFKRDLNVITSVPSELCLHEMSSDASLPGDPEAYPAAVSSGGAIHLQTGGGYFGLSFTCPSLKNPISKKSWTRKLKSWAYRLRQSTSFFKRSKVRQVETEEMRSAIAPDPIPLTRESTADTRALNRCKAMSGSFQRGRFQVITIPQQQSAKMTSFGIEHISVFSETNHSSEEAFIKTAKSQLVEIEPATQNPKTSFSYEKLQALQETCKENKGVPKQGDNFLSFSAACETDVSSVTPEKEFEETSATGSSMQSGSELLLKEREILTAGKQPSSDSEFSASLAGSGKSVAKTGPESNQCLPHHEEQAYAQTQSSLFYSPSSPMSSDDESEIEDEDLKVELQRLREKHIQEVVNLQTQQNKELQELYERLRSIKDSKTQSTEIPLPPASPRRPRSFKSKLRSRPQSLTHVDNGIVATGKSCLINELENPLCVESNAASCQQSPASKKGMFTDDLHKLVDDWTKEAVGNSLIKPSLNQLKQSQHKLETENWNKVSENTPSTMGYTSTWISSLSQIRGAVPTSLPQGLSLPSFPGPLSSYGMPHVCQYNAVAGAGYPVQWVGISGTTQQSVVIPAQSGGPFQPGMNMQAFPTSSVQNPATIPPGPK

With `N#Cc1cccc(-c2c[nH]c3ncnc(N4CCOCC4)c23)c1`, the % of control in assay [1] was 100%.
`O=C(NOC[C@H](O)CO)c1ccc(F)c(F)c1Nc1ccc(I)cc1F` returned a % of control in assay [2] of 100%.
`Cc1cnc(Nc2ccc(F)cc2Cl)nc1-c1c[nH]c(C(=O)N[C@H](CO)c2cccc(Cl)c2)c1`: the pKi in assay [3] was less than 5.40.
For `CC[C@@H]1[C@H](F)C(=O)N[C@@H]1COc1nccc2cc(C(N)=O)c(OC)cc12` [ZIMLOVISERTIB], in assay [4], the % of inhibition turned out to be 2.8%.
`CN(C)C/C=C/C(=O)Nc1ccc(C(=O)N2CCCC(Nc3ncc(Cl)c(-c4c[nH]c5ccccc45)n3)C2)cc1` (stereo unspecified): the values for the % of control in assay [5] and in assay [6] were 81% and 92%, respectively.
